Test results as given in publication PMC11219871, “Epigenetic-based differentiation therapy for Acute Myeloid Leukemia” (Nature Communications, 2024).

Columns and labels:
Assay in all cases: Epigenetic panel (BPS Bioscience)
Assay type in all cases: biochemical
JMJD2D = target: T1, JMJD2D (Homo sapiens, UniProt Q6B0I6)
T1 construct: purchased BPS Bioscience; Eurofins (HDAC4, 5, 7-11)
Source text: (§1) The selectivity of CM-444 and CM-1758 against other epigenetic targets, including histone demethylase (JMJD2A, JMJD2B, JMJD2C, JMJD2D, JMJD2E, JMJD3, JMJD1A, LSD1, Jarid1A, Jarid1B, Jarid1C, FBXL10, FBXL11, JHDM1D, JMJD1B, PHF8, LSD2 and UTX); histone acetyltransferases (GCN5, P300); histone methyltransferases (G9a, GLP, MLL1, SET7/9, SUV39H1, SUV39H2, PRMT1, PRMT3, PRMT4, PRMT5, PRMT6, PRMT8, PRMT9, NSD1, NSD2, EZH1, EZH2, SETDB1, SETD2, SET8, SUV4-20H1, SMYD2, SMYD3, DOT1L, EZH2 (A677G), EZH2 (A677G), EZH2 (A738T), EZH2 (Y641S), EZH2 (P132S), EZH2 (Y641C), EZH2 (Y641F), EZH2 (Y641H), EZH2 (Y641N)); bromodomains (ATAD2B, ATAD2A, BRD1, BRD9, BPTF/FALZ, CeCR2, BRPF3, BRD3 (BD1 + BD2), BAZ2B, WDR9, TAF1 (BD2), TAF1L (BD2), TAF1L (BD1 + BD2), BRD2 (BD1), BRD2 (BD2), BRD2 (BD1 + BD2), BRD3 (BD1), BRD3 (BD2), BRD4 (BD1), BRD4 (BD2), BRD4 (BD1 + BD2), BRDT (BD1), BRDT (BD1 + BD2), CREBBP, SMARCA2A, SMARCA4/BRG1); DNA methyltranferases (DNMT1, DNMT3A/3L and DNMT3B/3L), and sirtuin histone deacetylases (SIRT1, SIRT2, SIRT3, SIRT5 and SIRT6), were determined by BPS Bioscience (http://www.bpsbioscience.com/index.ph). Binding experiments were performed in duplicate at a concentration of 10 μM.

EZH2 (A738T) = target: T2, EZH2 (A738T) (Homo sapiens, UniProt Q15910)
T2 construct: purchased BPS Bioscience; Eurofins (HDAC4, 5, 7-11)
Source text: as §1

SIRT3 = target: T3, SIRT3 (Homo sapiens, UniProt Q9NTG7)
T3 construct: purchased BPS Bioscience; Eurofins (HDAC4, 5, 7-11)
Source text: as §1

PRMT5 = target: T4, PRMT5 (Homo sapiens, UniProt O14744)
T4 construct: purchased BPS Bioscience; Eurofins (HDAC4, 5, 7-11)
Source text: as §1

Jarid1A = target: T5, Jarid1A (Homo sapiens, UniProt P29375)
T5 construct: purchased BPS Bioscience; Eurofins (HDAC4, 5, 7-11)
Source text: as §1

SUV39H1 = target: T6, SUV39H1 (Homo sapiens, UniProt O43463)
T6 construct: purchased BPS Bioscience; Eurofins (HDAC4, 5, 7-11)
Source text: as §1

SMYD2 = target: T7, SMYD2 (Homo sapiens, UniProt Q9NRG4)
T7 construct: purchased BPS Bioscience; Eurofins (HDAC4, 5, 7-11)
Source text: as §1

LSD2 = target: T8, LSD2 (Homo sapiens, UniProt Q8NB78)
T8 construct: purchased BPS Bioscience; Eurofins (HDAC4, 5, 7-11)
Source text: as §1

Jarid1C = target: T9, Jarid1C (Homo sapiens, UniProt P41229)
T9 construct: purchased BPS Bioscience; Eurofins (HDAC4, 5, 7-11)
Source text: as §1

JHDM1D = target: T10, JHDM1D (Homo sapiens, UniProt Q6ZMT4)
T10 construct: purchased BPS Bioscience; Eurofins (HDAC4, 5, 7-11)
Source text: as §1

DOT1L = target: T11, DOT1L (Homo sapiens, UniProt Q8TEK3)
T11 construct: purchased BPS Bioscience; Eurofins (HDAC4, 5, 7-11)
Source text: as §1

EZH2 (Y641F) = target: T12, EZH2 (Y641F) (Homo sapiens, UniProt Q15910, Y641F)
T12 construct: purchased BPS Bioscience; Eurofins (HDAC4, 5, 7-11)
Source text: as §1

GLP = target: T13, GLP (Homo sapiens, UniProt Q9H9B1)
T13 construct: purchased BPS Bioscience; Eurofins (HDAC4, 5, 7-11)
Source text: as §1

SUV4-20H1 = target: T14, SUV4-20H1 (Homo sapiens, UniProt Q4FZB7)
T14 construct: purchased BPS Bioscience; Eurofins (HDAC4, 5, 7-11)
Source text: as §1

JMJD2B = target: T15, JMJD2B (Homo sapiens, UniProt O94953)
T15 construct: purchased BPS Bioscience; Eurofins (HDAC4, 5, 7-11)
Source text: as §1

EZH2 (A677G) = target: T16, EZH2 (A677G) (Homo sapiens, UniProt Q15910, A677G)
T16 construct: purchased BPS Bioscience; Eurofins (HDAC4, 5, 7-11)
Source text: as §1

SMYD3 = target: T17, SMYD3 (Homo sapiens, UniProt Q9H7B4)
T17 construct: purchased BPS Bioscience; Eurofins (HDAC4, 5, 7-11)
Source text: as §1

SETD2 = target: T18, SETD2 (Homo sapiens, UniProt Q9BYW2)
T18 construct: purchased BPS Bioscience; Eurofins (HDAC4, 5, 7-11)
Source text: as §1

DNMT3A/3L = target: T19, DNMT3A/3L (Homo sapiens, UniProt Q9Y6K1)
T19 construct: purchased BPS Bioscience (contracted assay service)
Source text: as §1

UTX = target: T20, UTX (Homo sapiens, UniProt O15550)
T20 construct: purchased BPS Bioscience (contracted assay service)
Source text: as §1

GCN5 = target: T21, GCN5 (Homo sapiens, UniProt Q92830); conditions: read-out: % of inhibition
T21 construct: purchased BPS Bioscience; Eurofins (HDAC4, 5, 7-11)
Source text: as §1

EZH2 (Y641C) = target: T22, EZH2 (Y641C) (Homo sapiens, UniProt Q15910, Y641C)
T22 construct: purchased BPS Bioscience; Eurofins (HDAC4, 5, 7-11)
Source text: as §1

PRMT4 = target: T23, PRMT4 (Homo sapiens, UniProt Q86X55)
T23 construct: purchased BPS Bioscience; Eurofins (HDAC4, 5, 7-11)
Source text: as §1

SIRT2 = target: T24, SIRT2 (Homo sapiens, UniProt Q8IXJ6)
T24 construct: purchased BPS Bioscience; Eurofins (HDAC4, 5, 7-11)
Source text: as §1

LSD1 = target: T25, LSD1 (Homo sapiens, UniProt O60341)
T25 construct: purchased BPS Bioscience; Eurofins (HDAC4, 5, 7-11)
Source text: as §1

JMJD3 = target: T26, JMJD3 (Homo sapiens, UniProt O15054)
T26 construct: purchased BPS Bioscience; Eurofins (HDAC4, 5, 7-11)
Source text: as §1

FBXL11 = target: T27, FBXL11 (Homo sapiens, UniProt Q9Y2K7)
T27 construct: purchased BPS Bioscience; Eurofins (HDAC4, 5, 7-11)
Source text: as §1

SET7/9 = target: T28, SET7/9 (Homo sapiens, UniProt Q8WTS6)
T28 construct: purchased BPS Bioscience; Eurofins (HDAC4, 5, 7-11)
Source text: as §1

JMJD2C = target: T29, JMJD2C (Homo sapiens, UniProt Q9H3R0)
T29 construct: purchased BPS Bioscience; Eurofins (HDAC4, 5, 7-11)
Source text: as §1

T20 sequence (O15550 whole entry): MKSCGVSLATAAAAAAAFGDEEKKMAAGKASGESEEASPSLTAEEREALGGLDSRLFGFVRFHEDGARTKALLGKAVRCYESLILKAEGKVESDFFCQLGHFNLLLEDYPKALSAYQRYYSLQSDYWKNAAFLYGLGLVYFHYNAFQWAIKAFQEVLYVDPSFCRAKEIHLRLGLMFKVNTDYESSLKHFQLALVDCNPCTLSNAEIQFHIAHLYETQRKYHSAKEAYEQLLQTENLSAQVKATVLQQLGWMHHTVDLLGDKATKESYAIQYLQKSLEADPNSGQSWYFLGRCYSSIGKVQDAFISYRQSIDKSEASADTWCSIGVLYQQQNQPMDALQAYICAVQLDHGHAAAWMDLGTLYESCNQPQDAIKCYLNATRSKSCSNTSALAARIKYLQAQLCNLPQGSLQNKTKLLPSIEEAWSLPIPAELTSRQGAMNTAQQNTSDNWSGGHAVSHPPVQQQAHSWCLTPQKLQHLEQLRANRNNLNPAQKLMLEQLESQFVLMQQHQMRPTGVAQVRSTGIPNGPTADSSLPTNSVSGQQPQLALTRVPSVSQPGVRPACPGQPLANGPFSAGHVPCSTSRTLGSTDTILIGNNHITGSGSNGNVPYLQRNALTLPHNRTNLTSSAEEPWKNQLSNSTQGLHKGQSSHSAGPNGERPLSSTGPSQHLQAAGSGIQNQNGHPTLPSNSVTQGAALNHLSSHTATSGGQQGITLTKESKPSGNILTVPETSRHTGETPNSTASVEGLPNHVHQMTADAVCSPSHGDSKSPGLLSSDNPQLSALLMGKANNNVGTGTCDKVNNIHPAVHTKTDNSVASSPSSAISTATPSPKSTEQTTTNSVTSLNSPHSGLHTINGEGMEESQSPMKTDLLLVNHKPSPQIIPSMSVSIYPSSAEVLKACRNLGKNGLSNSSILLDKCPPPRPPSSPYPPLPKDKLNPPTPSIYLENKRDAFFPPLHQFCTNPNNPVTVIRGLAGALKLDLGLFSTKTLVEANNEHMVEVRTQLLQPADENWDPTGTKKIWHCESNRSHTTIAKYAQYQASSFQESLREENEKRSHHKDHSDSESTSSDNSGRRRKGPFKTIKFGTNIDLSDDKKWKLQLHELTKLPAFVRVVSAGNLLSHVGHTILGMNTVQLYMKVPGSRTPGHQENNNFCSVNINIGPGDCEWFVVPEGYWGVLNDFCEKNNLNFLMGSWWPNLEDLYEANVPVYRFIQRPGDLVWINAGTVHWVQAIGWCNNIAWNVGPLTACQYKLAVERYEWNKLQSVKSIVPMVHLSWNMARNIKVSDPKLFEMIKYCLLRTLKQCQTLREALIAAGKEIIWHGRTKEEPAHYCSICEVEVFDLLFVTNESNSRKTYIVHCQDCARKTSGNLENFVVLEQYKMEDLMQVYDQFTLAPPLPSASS
T19 sequence (Q9Y6K1 whole entry, looked up): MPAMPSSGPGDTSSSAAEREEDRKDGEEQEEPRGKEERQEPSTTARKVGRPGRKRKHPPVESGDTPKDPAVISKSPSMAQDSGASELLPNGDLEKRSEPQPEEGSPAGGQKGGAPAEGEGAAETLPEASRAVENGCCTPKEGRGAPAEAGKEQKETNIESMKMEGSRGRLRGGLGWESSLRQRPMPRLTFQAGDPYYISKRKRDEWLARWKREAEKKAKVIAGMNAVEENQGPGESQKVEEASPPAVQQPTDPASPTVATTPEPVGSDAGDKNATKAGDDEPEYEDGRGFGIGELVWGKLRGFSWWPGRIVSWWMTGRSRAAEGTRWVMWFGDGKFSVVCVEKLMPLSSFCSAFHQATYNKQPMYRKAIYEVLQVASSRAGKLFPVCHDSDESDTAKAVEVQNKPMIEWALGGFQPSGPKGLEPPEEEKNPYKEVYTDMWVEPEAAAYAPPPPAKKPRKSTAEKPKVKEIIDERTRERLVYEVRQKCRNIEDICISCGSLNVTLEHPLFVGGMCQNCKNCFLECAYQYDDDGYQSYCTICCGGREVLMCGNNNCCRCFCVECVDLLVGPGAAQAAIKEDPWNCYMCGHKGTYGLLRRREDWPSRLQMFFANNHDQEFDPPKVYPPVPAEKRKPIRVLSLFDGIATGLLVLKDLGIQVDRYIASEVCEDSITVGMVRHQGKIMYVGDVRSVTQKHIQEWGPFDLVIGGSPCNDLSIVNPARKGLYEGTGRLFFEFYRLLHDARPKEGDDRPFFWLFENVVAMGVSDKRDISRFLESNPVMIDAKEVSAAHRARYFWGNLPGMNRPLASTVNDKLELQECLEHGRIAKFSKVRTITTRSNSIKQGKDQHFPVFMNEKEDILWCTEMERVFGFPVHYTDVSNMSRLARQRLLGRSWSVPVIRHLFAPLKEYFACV
T19 sequence (Q9UJW3 whole entry partner): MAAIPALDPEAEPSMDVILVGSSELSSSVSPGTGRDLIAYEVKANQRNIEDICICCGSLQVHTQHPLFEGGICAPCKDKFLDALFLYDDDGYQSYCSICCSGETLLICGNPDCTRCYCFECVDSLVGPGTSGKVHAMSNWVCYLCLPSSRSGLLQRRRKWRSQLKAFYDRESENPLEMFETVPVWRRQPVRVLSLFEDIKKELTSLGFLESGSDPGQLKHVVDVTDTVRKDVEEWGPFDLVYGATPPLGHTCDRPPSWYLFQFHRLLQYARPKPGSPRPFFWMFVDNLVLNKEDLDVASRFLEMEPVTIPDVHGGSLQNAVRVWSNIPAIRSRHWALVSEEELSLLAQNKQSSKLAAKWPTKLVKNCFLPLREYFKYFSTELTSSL
T13 sequence (Q9H9B1 whole entry): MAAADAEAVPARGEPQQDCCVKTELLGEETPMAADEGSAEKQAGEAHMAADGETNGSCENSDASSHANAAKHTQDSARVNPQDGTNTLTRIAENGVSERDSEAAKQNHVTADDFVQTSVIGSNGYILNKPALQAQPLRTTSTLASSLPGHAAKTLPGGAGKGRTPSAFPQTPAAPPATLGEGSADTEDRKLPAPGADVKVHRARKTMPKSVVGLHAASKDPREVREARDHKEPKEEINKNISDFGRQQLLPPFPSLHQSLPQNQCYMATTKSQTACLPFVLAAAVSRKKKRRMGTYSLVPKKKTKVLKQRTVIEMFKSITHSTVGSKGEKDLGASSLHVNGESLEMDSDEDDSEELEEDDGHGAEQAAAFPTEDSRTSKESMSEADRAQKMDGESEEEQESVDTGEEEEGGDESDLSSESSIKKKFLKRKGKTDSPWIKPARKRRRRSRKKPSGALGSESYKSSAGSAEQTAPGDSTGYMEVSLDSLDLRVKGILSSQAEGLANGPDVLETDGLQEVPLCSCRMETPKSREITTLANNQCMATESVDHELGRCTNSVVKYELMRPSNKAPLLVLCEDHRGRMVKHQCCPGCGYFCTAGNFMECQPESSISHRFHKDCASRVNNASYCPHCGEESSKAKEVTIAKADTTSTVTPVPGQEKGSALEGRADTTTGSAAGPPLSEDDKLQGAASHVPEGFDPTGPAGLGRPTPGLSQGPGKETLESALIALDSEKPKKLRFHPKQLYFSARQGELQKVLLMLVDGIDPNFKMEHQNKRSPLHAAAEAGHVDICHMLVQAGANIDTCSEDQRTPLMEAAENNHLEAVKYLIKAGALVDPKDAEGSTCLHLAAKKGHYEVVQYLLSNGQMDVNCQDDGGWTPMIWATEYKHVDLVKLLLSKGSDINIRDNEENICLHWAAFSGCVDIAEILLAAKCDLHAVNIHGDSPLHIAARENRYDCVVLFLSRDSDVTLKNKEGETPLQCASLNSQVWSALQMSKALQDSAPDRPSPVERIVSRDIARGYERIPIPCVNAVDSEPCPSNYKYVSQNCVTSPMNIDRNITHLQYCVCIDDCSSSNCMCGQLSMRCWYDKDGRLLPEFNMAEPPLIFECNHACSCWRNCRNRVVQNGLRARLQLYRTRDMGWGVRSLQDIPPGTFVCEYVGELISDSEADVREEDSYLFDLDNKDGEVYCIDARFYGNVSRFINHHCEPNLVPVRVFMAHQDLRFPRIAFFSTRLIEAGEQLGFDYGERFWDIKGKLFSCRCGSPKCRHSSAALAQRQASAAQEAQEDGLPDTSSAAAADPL
T6 sequence (O43463 whole entry): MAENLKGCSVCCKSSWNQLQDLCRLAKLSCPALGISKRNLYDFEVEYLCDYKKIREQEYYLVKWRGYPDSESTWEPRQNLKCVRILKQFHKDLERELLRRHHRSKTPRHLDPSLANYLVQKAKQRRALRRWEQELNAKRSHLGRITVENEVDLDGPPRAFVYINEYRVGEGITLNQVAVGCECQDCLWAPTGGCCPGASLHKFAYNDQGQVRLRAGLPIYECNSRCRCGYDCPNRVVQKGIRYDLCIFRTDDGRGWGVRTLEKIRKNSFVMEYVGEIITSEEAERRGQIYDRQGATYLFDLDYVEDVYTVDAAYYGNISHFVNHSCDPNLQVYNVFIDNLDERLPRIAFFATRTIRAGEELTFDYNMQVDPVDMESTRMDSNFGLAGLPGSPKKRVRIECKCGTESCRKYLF
T17 sequence (Q9H7B4 whole entry): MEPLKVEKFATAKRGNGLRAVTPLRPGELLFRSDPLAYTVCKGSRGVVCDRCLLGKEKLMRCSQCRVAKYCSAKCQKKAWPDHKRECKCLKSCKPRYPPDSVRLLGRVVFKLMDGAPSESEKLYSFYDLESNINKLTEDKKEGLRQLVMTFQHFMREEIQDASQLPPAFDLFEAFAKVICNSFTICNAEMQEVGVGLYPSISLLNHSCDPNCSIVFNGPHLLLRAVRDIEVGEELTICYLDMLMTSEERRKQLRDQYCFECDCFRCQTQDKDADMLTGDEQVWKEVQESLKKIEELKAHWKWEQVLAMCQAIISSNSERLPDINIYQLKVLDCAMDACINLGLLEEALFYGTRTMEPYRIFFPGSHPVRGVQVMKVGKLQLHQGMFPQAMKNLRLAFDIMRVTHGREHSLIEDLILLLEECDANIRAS

COc1cc2nc(-c3ccc(C)o3)cc(NCC3CCN(c4ncc(C(=O)NO)cn4)CC3)c2cc1OC [CM-444, 2-[4-[[[6,7-dimethoxy-2-(5-methyl-2-furyl)-4-quinolyl]amino]methyl]-1-piperidyl]pyrimidine-5-carbohydroxamic acid] showed an inhibition at 10 µM (JMJD2D) of 5%, an inhibition at 10 µM (EZH2 (A738T)) of 5% and an inhibition at 10 µM (SIRT3) of 0%. It also gave an inhibition at 10 µM (PRMT5) of 0%, an inhibition at 10 µM (Jarid1A) of 16% and an inhibition at 10 µM (SUV39H1) of 1%. The inhibition at 10 µM (SMYD2) was 9%, the inhibition at 10 µM (LSD2) was 21% and the inhibition at 10 µM (Jarid1C) was 2%. The inhibition at 10 µM (JHDM1D) was 4%, the inhibition at 10 µM (DOT1L) was 0% and the inhibition at 10 µM (EZH2 (Y641F)) was 0%. It also gave an inhibition at 10 µM (GLP) of 0%, an inhibition at 10 µM (SUV4-20H1) of 2% and an inhibition at 10 µM (JMJD2B) of 1%. For the same molecule, the inhibition at 10 µM (EZH2 (A677G)) was 0%, the inhibition at 10 µM (SMYD3) was 35% and the inhibition at 10 µM (SETD2) was 0%. It also gave an IC50 (DNMT3A/3L) of 1800 nM, an inhibition at 10 µM (DNMT3A/3L) of 92% and an IC50 (UTX) of 1500 nM. For the same molecule, the inhibition at 10 µM (UTX) was 95%, the inhibition at 10 µM (GCN5) was 31% and the inhibition at 10 µM (EZH2 (Y641C)) was 4%. For the same molecule, the inhibition at 10 µM (PRMT4) was 0%, the inhibition at 10 µM (SIRT2) was 14% and the inhibition at 10 µM (LSD1) was 16%. The inhibition at 10 µM (JMJD3) was 21%, the inhibition at 10 µM (FBXL11) was 33% and the inhibition at 10 µM (SET7/9) was 0%. The inhibition at 10 µM (JMJD2C) was 4%.

COc1cc2nc(-c3cc(C)oc3C)cc(NCC3CCN(c4ncc(C(=O)NO)cn4)CC3)c2cc1OC [CM-1758, 2-[4-[[[2-(2,5-dimethyl-3-furyl)-6,7-dimethoxy-4-quinolyl]amino]methyl] -1-piperidyl]pyrimidine-5-carbohydroxamic acid] was tested, and the inhibition at 10 µM (JMJD2D) was 0%, the inhibition at 10 µM (EZH2 (A738T)) was 5% and the inhibition at 10 µM (SIRT3) was 9%. The inhibition at 10 µM (PRMT5) was 7%, the inhibition at 10 µM (Jarid1A) was 47% and the inhibition at 10 µM (SUV39H1) was 1%. The inhibition at 10 µM (SMYD2) was 16%, the inhibition at 10 µM (LSD2) was 22% and the inhibition at 10 µM (Jarid1C) was 26%. For the same molecule, the inhibition at 10 µM (JHDM1D) was 37%, the inhibition at 10 µM (DOT1L) was 0% and the inhibition at 10 µM (EZH2 (Y641F)) was 1%. The inhibition at 10 µM (GLP) was 7%, the inhibition at 10 µM (SUV4-20H1) was 1% and the inhibition at 10 µM (JMJD2B) was 10%. For the same molecule, the inhibition at 10 µM (EZH2 (A677G)) was 5%, the inhibition at 10 µM (SMYD3) was 21% and the inhibition at 10 µM (SETD2) was 11%. For the same molecule, the inhibition at 10 µM (DNMT3A/3L) was 44%, the IC50 (UTX) was 2200 nM and the inhibition at 10 µM (UTX) was 91%. The inhibition at 10 µM (GCN5) was 12%, the inhibition at 10 µM (EZH2 (Y641C)) was 0% and the inhibition at 10 µM (PRMT4) was 0%. The inhibition at 10 µM (SIRT2) was 0%, the inhibition at 10 µM (LSD1) was 20% and the inhibition at 10 µM (JMJD3) was 20%. It also gave an inhibition at 10 µM (FBXL11) of 2%, an inhibition at 10 µM (SET7/9) of 19% and an inhibition at 10 µM (JMJD2C) of 9%.
